The values below come from the RepoRT retention time repository (doi:10.1016/j.talanta.2015.03.003).

Structures are written as SMILES.

This data set can be described thus: RP, Merck Supelco Ascentis Express C18, 150 × 2.1 mm, 2.7 µm, 55 °C, 0.26 mL/min, estimated dead time 1.3 min; A: 60% water + 40% acetonitrile + 0.1% formic acid + 10 mM ammonium formate; B: 10% acetonitrile + 90% isopropanol + 0.1% formic acid + 10 mM ammonium formate; gradient (min/%B) 0/32 1.5/32 4/45 5/52 8/58 11/66 14/70 18/75 21/97 25/97 25.1/32 30/32. Conditions: stereoisomer not certain.
On to `CCCCCC=CCC=CCCCCCCCC(=O)OCC(O)CO` (racemic) [1linoleoyl-rac-GL], for which the LC retention time is 7.6 min.

For `CCCCCCC=CCCCCCCCC(=O)OCC(O)CO` (racemic) [1monopalmitoleoyl-rac-GL], the LC retention time was 7 min. To `CCCCCC=CCC=CCCCCCCCC(=O)OCC(COP(=O)(O)OCC[N+](C)(C)C)OC(=O)CCCCCCCC=CCC=CCCCCC` (centres undefined) [1,2dilinoleoyl_PC] belongs 14.7 min.

Turning to `CCCCCCCCC=CCCCCCCCC(=O)OCC(COP(=O)(O)OCC(O)CO)OC(=O)CCCCCCCC=CCCCCCCCC` (centres undefined) [1,2dioleoyl_GLP_Na], the LC retention time was 15.7 min. To `CCCCCCCCC=CCCCCCCCC(=O)OCC(COP(=O)([O-])OCC[N+](C)(C)C)OC(=O)CCCCCCCC=CCCCCCCCC` (centres undefined) [1,2dioleoyl_PC] belongs 17 min; to `CCCCCCCCC=CCCCCCCCC(=O)OCC(COP(=O)(O)OCCN)OC(=O)CCCCCCCC=CCCCCCCCC` (centres undefined) [1,2dioleoyl_PE], 17.4 min. To `CCCCCCCCCCCCCCCC(=O)OCC(O)COP(=O)([O-])OCC[N+](C)(C)C` (centres undefined) [1-palmitoyl-sn-glycero-3PC] belongs 5.9 min; to `CCCCCCCCC=CCCCCCCCC(=O)OCC(O)CO` (stereo not drawn) [1oleoyl_rac_GL], 8.8 min; to `CC(C)CCCC(C)C1CCC2C3CCC4CCCCC4(C)C3CCC12C` (centres undefined) [5alfa-colestane], 9.2 min.

Consider `CCC(CCC(C)C1CCC2C3CC=C4CC(O)CCC4(C)C3CCC12C)C(C)C` (centres undefined) [BSitosterol], for which the LC retention time is 16.6 min. Next, `CCCCCCCCCCCCCCCCCCCCCC(=O)O` [BehenicAcid]: 15.8 min. Next, `CCCCCCCCCCCCCCCC(=O)OC(CC(=O)[O-])C[N+](C)(C)C` (centres undefined) [C16-CAR]: 5.4 min; `CC(CCC(=O)O)C1CCC2C3C(O)CC4CC(O)CCC4(C)C3CC(O)C12C` (centres undefined) [CA]: 2.2 min. Consider `CCCCCCCCCCCCCC=CC(O)C(CO)NC(=O)CCCCCCCCCCCCCCCCC` (centres undefined) [CER_893], for which the LC retention time was 19.4 min. `CC(C)CCCC(C)C1CCC2C3CC=C4CC(O)CCC4(C)C3CCC12C` (centres undefined) [CHOLESTEROL]: the LC retention time is 15.3 min. Next, `CC(C)CCCC(C)C1CCC2C3CC4OC45CC(O)CCC5(C)C3CCC12C` (centres undefined) [Chol_Epoxide]: 12.8 min.

On to `CC(C)CCCC(C)C1CCC2C3CCC4CC(O)CCC4(C)C3CCC12C` (centres undefined) [Cholestanol], for which the LC retention time is 11.3 min.

`CCCCCCCCCCCCCC=CC(O)C(N)CO` [D-sphingosine]: the LC retention time was 4.3 min. Next, `CC(CCC(=O)O)C1CCC2C3CCC4CC(O)CCC4(C)C3CC(O)C12C` (centres undefined) [DCA]: 3.5 min; `CCC=CCC=CCC=CCC=CCC=CCC=CCCC(=O)O` [DocosahexaenoicAcid]: 8.4 min.

On to `CC(CCC(=O)NCC(=O)O)C1CCC2C3C(O)CC4CC(O)CCC4(C)C3CC(O)C12C` (centres undefined) [G-CA], for which the LC retention time was 1.6 min. For the compound `CC(CCC(=O)NCC(=O)O)C1CCC2C3CCC4CC(O)CCC4(C)C3CC(O)C12C` (centres undefined) [G-DCA], the LC retention time is 2.1 min. Next, `CC(CCC(=O)NCC(=O)O)C1CCC2C3CCC4CC(O)CCC4(C)C3CCC12C` (centres undefined) [G-LCA]: 2.9 min; `CCCCCC=CCC=CCCCCCCCC(=O)OCC(COC(=O)CCCCCCCC=CCC=CCCCCC)OC(=O)CCCCCCCC=CCC=CCCCCC` (centres undefined) [Glyceryltrilinoleate]: 23.6 min. For the compound `CC(CCC(=O)O)C1CCC2C3CC(O)C4CC(O)CCC4(C)C3CCC12C` (centres undefined) [HDCA], the LC retention time was 2.1 min. Turning to `CC(CCC(=O)O)C1CCC2C3CCC4CC(O)CCC4(C)C3CCC12C` (centres undefined) [LCA], the LC retention time was 5.6 min.

For `CC(CCC(=O)O)C1CCC2C3C(O)C(O)C4CC(O)CCC4(C)C3CCC12C` (centres undefined) [MCA], the LC retention time was 1.9 min. As for `CCCCC=CCCCCCCCC(=O)O` [MiristoleicAcid], the LC retention time was 6.6 min. As for `CCCCCCCCCCCCCC(=O)O` [MirysticAcid], the LC retention time is 8 min. Next, `CCCCCCCCC=CCCCCCCCC(=O)OC(CC(=O)[O-])C[N+](C)(C)C` (centres undefined) [Oleoyl-CAR]: 5.8 min. With `NC(COP(=O)(O)O)C(=O)O` (centres undefined) [PS], the LC retention time was 14.9 min. Next, `CC(=O)C1CCC2C3CCC4=CC(=O)CCC4(C)C3CCC12C` (centres undefined) [Progesterone]: 2.7 min. Regarding `CCCCCCCCCCCCCCCCCC(=O)O` [StearicAcid], the LC retention time is 12 min. Turning to `CC(CCC(=O)NCCS(=O)(=O)O)C1CCC2C3CCC4CC(O)CCC4(C)C3CC(O)C12C` (centres undefined) [T-DCA], the LC retention time was 1.6 min. With `NC(CF)(C(=O)O)C(O)CCc1ccccc1` (centres undefined) [T-LCA], the LC retention time was 2 min. With `CCCCCCCCCCCCCCCCCCCC(=O)O` [arachidic acid], the LC retention time is 13.9 min. To `CCC(CCC(C)C1CCC2C3CC=C4CC(OC5OC(CO)C(O)C(O)C5O)CCC4(C)C3CCC12C)C(C)C` (centres undefined) [betaSitosterolglucoside] belongs 12.6 min. To `CC(C)C(C)C=CC(C)C1CCC2C3CC=C4CC(O)CCC4(C)C3CCC12C` (centres undefined) [brassicasterol] belongs 15.1 min; to `CC(C)C(C)CCC(C)C1CCC2C3CC=C4CC(O)CCC4(C)C3CCC12C` (centres undefined) [campesterol], 16 min.

Take `CCCCCCCC/C=C\CCCCCCCCCC(=O)O` [cis-11-eicosenoic acid]: the LC retention time was 12.2 min. Next, `CCCCCCC=CCCCCCCCCCC(=O)O` [cis-vaccenic_acid]: 10.3 min; `CC(C)=CCCC(C)C1CCC2C3CC=C4CC(O)CCC4(C)C3CCC12C` (centres undefined) [desmosterol]: 13.8 min; `CC(C)C(C)C=CC(C)C1CCC2C3=CC=C4CC(O)CCC4(C)C3CCC21C` (centres undefined) [ergosterol]: 14.2 min.

Consider `CCCCCCCCC=CCCCCCCCCCCCC(=O)O` [erucic acid], for which the LC retention time was 14 min. Take `CCCCCCCCC=CCCCCCCCC(=O)OCC(COC(=O)CCCCCCCC=CCCCCCCCC)OC(=O)CCCCCCCC=CCCCCCCCC` (centres undefined) [glyceryltrioleate]: the LC retention time is 24.2 min.

As to `CCCCCCCCCCCCCCCC(=O)OCC(COC(=O)CCCCCCCCCCCCCCC)OC(=O)CCCCCCCCCCCCCCC` [glyceryltripalmitate], the LC retention time is 24.2 min. Regarding `CCCCCCC=CCCCCCCCC(=O)OCC(COC(=O)CCCCCCCC=CCCCCCC)OC(=O)CCCCCCCC=CCCCCCC` (centres undefined) [glyceryltripalmitoleate], the LC retention time is 24.2 min. To `CCCCCCCCCCCCCCCCCC(=O)OCC(COC(=O)CCCCCCCCCCCCCCCCC)OC(=O)CCCCCCCCCCCCCCCCC` [glyceryltristearate] belongs 24.9 min; to `CC(C)=CCCC(C)C1CCC2(C)C3=C(CCC12C)C1(C)CCC(O)C(C)(C)C1CC3` (centres undefined) [lanosterol], 15 min. With `CCCCCCCCCCCCCCCCCCCCCCCC(=O)O` [lignoceric acid], the LC retention time is 17.8 min.

In the case of `CCCCC/C=C\C/C=C\CCCCCCCC(=O)O` [linoleic acid], the LC retention time is 8.9 min.

In the case of `CCC=CCC=CCC=CCCCCCCCC(=O)O` [linolenic acid], the LC retention time is 7.8 min. To `C=C(C)C1CCC2(C)CCC3(C)C(CCC4C5(C)CCC(O)C(C)(C)C5CCC43C)C12` (centres undefined) [lupeol] belongs 15.2 min. Turning to `CCCCCCCCCCCCCCCCC(=O)O` [margaric acid], the LC retention time is 11 min. Take `CCCCCCCCC=CCCCCCCCC(=O)O` [oleic_acid]: the LC retention time is 10.3 min. To `CCCCCCCCCCCCCCCC(=O)O` [palmitic_acid] belongs 9.9 min; to `CCCCCCC=CCCCCCCCC(=O)O` [palmitoleic_acid], 8.4 min; to `CCC(C=CC(C)C1CCC2C3CC=C4CC(O)CCC4(C)C3CCC12C)C(C)C` (centres undefined) [stigmasterol], 16 min. Next, `CC1CCC2(CO)CCC3(C)C(=CCC4C5(C)CCC(O)C(C)(C)C5CCC43C)C2C1C` (centres undefined) [uvaol]: 7.6 min.
